Source: PubChem BioAssay AID2305 (GlaxoSmithKline (GSK), 2010)

Each compound was assayed on P. falciparum 3D7 growth, pLDH absorbance (assay: P. falciparum 3D7 growth inhibition, dose response, strain 3D7 (AID 2305)).
Work on `COc1ccc(-c2cccc(CNCc3ccc(F)cc3)c2)cc1S(=O)(=O)NCCN1CCCC1` yielded an IC50 of 1850 nM.
`COc1ccc2c(C)cc(NCCCN(C)C)nc2c1` showed an IC50 of 1100 nM.
`CCCCCC(C)(C)NC[C@@H](O)[C@H](Cc1ccccc1)NC(=O)c1cc(NCC)cc(N2CCCC2=O)c1` was tested, and the IC50 was 670 nM.
`Cc1ccc2c(c1)C1(CC(=O)N(CCc3scnc3C)C1=O)C(=O)N2Cc1ccccc1` (stereo not given) was tested, and the IC50 was 1250 nM.
In the case of `CC(C)(C)OC(=O)N(Cc1cc(-n2nnnc2C(F)(F)F)ccc1O)[C@H]1CCCN(C(=O)OC(C)(C)C)[C@H]1c1ccccc1`, the IC50 is reported as 720 nM.
`COc1ccc2ccccc2c1CNCC1CCN(CC2CCCCC2)CC1` gave an IC50 of 760 nM.
`COc1ccc(Cc2nc(N=C(N)Nc3ccccc3)ccc2OC)cc1` was tested, and the IC50 was 850 nM.
`N#Cc1ccc2[nH]cc(CN3CCC4(CC3)CN(CCNCc3ccccc3)C(=O)CO4)c2c1` showed an IC50 of 760 nM.
`C=CCN1C(=O)CN(S(=O)(=O)c2ccc(-n3nc(C)cc3C)cc2)C1=S` showed an IC50 of 940 nM.
`COc1ccc(CNC2CCN(C)CC2)cc1-c1ccc(S(=O)(=O)NCc2ccccc2)s1` gave an IC50 of 230 nM.
For `O=C(O)c1ccc(-c2c[nH]c3ncc(-c4ccc(Cl)cc4)cc23)cc1`, the IC50 was 730 nM.
`Cc1cc(=O)c(-c2ccc(Oc3ccc(C(F)(F)F)cc3)cc2)c(C)n1O` was tested, and the IC50 was 600 nM.
`CCOc1ccc(Nc2nc(N)c3ccccc3n2)cc1` showed an IC50 of 1150 nM.
With `Clc1ccc(-c2nc3ccc(-c4ccc5nc(-c6ccc(Cl)cc6)[nH]c5c4)cc3[nH]2)cc1` the IC50 was 240 nM.
`CC[C@H]1CN2CC[C@@H]1C[C@H]2[C@H](O)c1ccnc2ccc(OC)cc12` was tested, and the IC50 was 230 nM.
`CC1(C)CCC(=Cc2ccc(Cl)cc2)CC1(O)Cn1ccnc1` (stereo not given) showed an IC50 of 740 nM.
For `CC(C)[C@H](NC(=O)c1ccc(O)c(-c2cccc(C(F)(F)F)c2)c1)C(=O)NCCN1CCCCC1`, the IC50 was 840 nM.
In the case of `CC[C@H]1CN2CCc3cc(OC)c(OC)cc3[C@@H]2C[C@@H]1C[C@H]1NCCc2c1cc(OC)c(O)c2Cl`, the IC50 is reported as 140 nM.
`COc1cccc2cc(C(=O)N[C@@H](CC(C)C)C(=O)N[C@H](/C=N/N(C)C(=O)OC(C)(C)C)CC(=O)OC(C)(C)C)oc12` was tested, and the IC50 was 650 nM.
Work on `CC(C)C[C@H](NC(=O)c1ccc(OCCN2CCOCC2)cc1)C(=O)N[C@H](/C=N/N1CCN(C)C1=O)CCc1ccccc1` yielded an IC50 of 290 nM.
In the case of `NC(=O)c1cccc(CNCc2ccc(-c3cccc(-c4nc5ccccc5[nH]4)c3)cc2)c1`, the IC50 is reported as 590 nM.
Compound `Cc1cnc(Nc2ccccc2)nc1NCCC(=O)Nc1ccccc1` has an IC50 of 1160 nM.
Compound `Nc1cc(C=Cc2ccc([N+](=O)[O-])o2)nc2ccccc12` has an IC50 of 370 nM.
In the case of `CN(C)Cc1ccc(-c2ccc3ccnc(N)c3c2)cc1`, the IC50 is reported as 380 nM.
`CC(=O)Nc1ccc(OCCN(CC(F)(F)F)c2ccc(C#N)cc2C(F)(F)F)cc1` was tested, and the IC50 was 770 nM.
Work on `Cc1nc(N)nc(N)c1CCCOc1ccccc1Cl` yielded an IC50 of 220 nM.
`COc1ccc(N2CCN(CCc3ccc(NC(=O)c4ccc([N+](=O)[O-])cc4)cc3)CC2)c(OC)c1` gave an IC50 of 1170 nM.
`CCCCCOc1ccc(CC(C)NCC(O)c2cccc(Cl)c2)cc1` (stereo not given) showed an IC50 of 650 nM.
With `COc1ccc(Nc2nccc(NCCNC(=O)Nc3ccccc3F)n2)cc1` the IC50 was 1320 nM.
`COc1ccc(CNC2CCN(c3ccc(NC(=O)c4cccc(Cl)c4)cc3)CC2)cc1OC` gave an IC50 of 1020 nM.
`Fc1cc(Cl)ccc1Nc1ccnc2cc(-c3ccc(CN4CCCCC4)o3)ccc12` showed an IC50 of 340 nM.
Work on `O=C(NC1CCN(CCCc2ccccc2)CC1)c1ccc(-c2cccc(C(F)(F)F)c2)s1` yielded an IC50 of 890 nM.
For `O=C(NCCCCN1CCC(c2ccc3c(c2OCCCO)CCCC3)CC1)c1ccc(-c2ccc(C(F)(F)F)cc2)cc1`, the IC50 was 720 nM.
Work on `COc1ccc2nccc([C@@H](O)CN3CCC(NCCOc4cccc(F)c4F)CC3)c2c1` yielded an IC50 of 240 nM.
With `CC(C)C(C(=O)Nc1ccc(S(=O)(=O)N(C)C)cc1)c1ccc(Cl)cc1` (stereo not given) the IC50 was 940 nM.
In the case of `N#Cc1ccc2[nH]cc(C(=O)CCCCCN(Cc3ccccc3)Cc3ccccc3)c2c1`, the IC50 is reported as 790 nM.
With `Cn1nccc1C(=O)NCCNCc1cccc(-c2ccc(-c3nc4ccc(C(F)(F)F)cc4[nH]3)cc2)c1` the IC50 was 120 nM.
`CCCc1cc(Cc2cnc(N)nc2N)cc(CCC)c1OCCCCCC(=O)OCC` gave an IC50 of 50 nM.
Compound `Fc1c(CNCC2CCN(CC3CCCCC3)CC2)cccc1C(F)(F)F` has an IC50 of 900 nM.
In the case of `CC1CCN(Cc2c(O)ccc3c(=O)c(-c4nc5ccccc5s4)c(N)oc23)CC1`, the IC50 is reported as 160 nM.
`CCOc1ccc(C2CCN(CCCCNC(=O)c3ccc(NC(=O)c4ccc(Cl)cc4)cc3)CC2)c(CC)c1` showed an IC50 of 790 nM.
`CC[C@H]1CN2CC[C@H]1C[C@H]2[C@H](O)c1cc(-c2ccc(Cl)c(Cl)c2)nc2ccc(OC)cc12` gave an IC50 of 120 nM.
Compound `CN1CCN(c2ccnc3cc4c(cc23)N(Cc2ccccc2)CC4)CC1` has an IC50 of 1140 nM.
`CCC1(CC)N=C(N)N=C(N)N1OCc1ccc(Cl)c(Cl)c1` was tested, and the IC50 was 60 nM.
Work on `C[C@@H](CC1CCCCC1)OC(=O)N(C)[C@@H]1CCN(C#N)C1` yielded an IC50 of 620 nM.
Compound `CCC(Cc1cnc2nc(N)nc(N)c2n1)c1ccc(C(=O)N[C@@H](CCC(=O)O)C(=O)O)cc1` (stereo not given in full) has an IC50 of 40 nM.
Compound `O=C(Nc1ccccc1)c1nn(CCCN2CCC(N3CCCC3)CC2)cc1-c1ccc(Cl)c(Cl)c1` has an IC50 of 240 nM.
Work on `O=C(Nc1cc(Cl)cc(Cl)c1)c1cc(Cl)c(=O)n(Cc2ccc(Cl)cc2)c1` yielded an IC50 of 860 nM.
In the case of `FC(F)(F)c1cccc(CNC2CCN(CC3CCCCC3)CC2)c1`, the IC50 is reported as 580 nM.
`CN1CCN(c2cccc(-c3nnc(-c4cccc(OCC(=O)NCc5ccc(C(F)(F)F)cc5)c4)o3)c2)CC1` gave an IC50 of 760 nM.
Work on `CC(=O)Nc1cccc(C(=O)Nc2cccc(-c3ccc(-c4nc5ccc(F)cc5[nH]4)s3)c2)c1` yielded an IC50 of 900 nM.
In the case of `CCCC(CNCc1cccc(C)c1)CNc1cc(=O)c2ccccc2[nH]1` (stereo not given), the IC50 is reported as 630 nM.
Compound `COc1ccc(C(C(=O)NC2CCN(C[C@H](O)c3ccnc4ccc(OC)cc34)CC2)N2CCN(c3ccc(F)cc3)CC2)cc1` (stereo not given in full) has an IC50 of 210 nM.
`O=C(/C=C/c1ccc(C(F)(F)F)cc1)NCCCCCN1CCN(C(=O)Nc2ccc(Cl)cc2)CC1` gave an IC50 of 1010 nM.
With `COc1ccc2nccc([C@@H](O)CN3CCC(NCc4cc5ccccc5[nH]4)CC3)c2c1` the IC50 was 1100 nM.
Work on `CCn1c(Sc2ccc([N+](=O)[O-])c(C#N)c2)nnc1-c1ccc(Cl)cc1` yielded an IC50 of 1000 nM.
`O=C(Cn1c(CCc2cccc(F)c2F)nc(=O)c2cccnc21)N(Cc1ccc(-c2ccc(C(F)(F)F)cc2)cc1)C1CCN(C2CCOCC2)CC1` gave an IC50 of 830 nM.
`Nc1nc(Cc2ccc(Cl)cc2)nc(Cc2ccc(Cl)cc2)n1` showed an IC50 of 930 nM.
`COc1ccc2nc(-c3cc(-c4ccc(NC(C)=O)cc4)cnc3N)[nH]c2c1` showed an IC50 of 1240 nM.
In the case of `O=c1cc(NCCCNC(c2ccccc2)c2ccc(Cl)c(Cl)c2)[nH]c2ccccc12` (stereo not given), the IC50 is reported as 1140 nM.
Compound `CCOc1cc(C=NNc2nc(C)cc(-n3nc(C)cc3C)n2)ccc1O` has an IC50 of 1080 nM.
Work on `O=C(C=Cc1ccc(Cl)c(Cl)c1)NCCCCCN1CCC(c2[nH]nc3ccccc23)CC1` yielded an IC50 of 640 nM.
With `COc1ccc(O)c(Cc2cnc3nc(N)[nH]c(=O)c3c2C)c1` the IC50 was 230 nM.
In the case of `FC(F)(F)c1ccc2nc(-c3cccc(-c4cccc(CNCC5CCCO5)c4)c3)[nH]c2c1` (stereo not given), the IC50 is reported as 420 nM.
In the case of `Nc1ncc(-c2cccc(F)c2)cc1-c1nc2ccc(F)cc2[nH]1`, the IC50 is reported as 180 nM.
In the case of `COc1cc(NCCCNC(=O)c2cc3c(Cl)cc(Cl)cc3[nH]2)nc2ccccc12`, the IC50 is reported as 140 nM.
For `CCCC(C)Nc1nc(C)cc(N[C@@H](Cc2ccccc2)C(=O)Nc2ccc(OC)cc2)n1` (stereo not given in full), the IC50 was 1120 nM.
`COc1cc(Cc2cnc(N)nc2N)cc(OCCCCCC(N)=O)c1OC` was tested, and the IC50 was 1190 nM.
With `Cc1cc(N(C)C)nc(Nc2ccc(NC(=O)c3ccc(F)cc3)cc2)n1` the IC50 was 710 nM.
With `O=C(NCc1cccc(F)c1)Nc1ccc(-c2cccc(-c3nc4ccccc4[nH]3)c2)cc1` the IC50 was 890 nM.
